The source of these data is ChEMBL document CHEMBL3779868, “Tetrahydroprotoberberine alkaloids with dopamine and σ receptor affinity” (Bioorg Med Chem, 2016).

The Ki is a dissociation constant, usually derived from enzyme kinetics or from competition with a known ligand. Broadly, the inhibition is the change of the read-out against control, counted positive when it falls. Usually IC50 stands for the concentration needed to halve the response being measured.

The species entered for test [1] is Homo sapiens. Put plainly: Selectivity ratio of Ki for human dopamine D3 receptor to human dopamine D1 receptor.
Test [2] is filed under the species Homo sapiens. Put plainly: Selectivity ratio of Ki for human dopamine D2 receptor to human dopamine D1 receptor.
For test [3], the species on record is Homo sapiens. Put plainly: Selectivity ratio of Ki for human dopamine D2 receptor to human dopamine D3 receptor.
Test [4] deals with T1, D(2) dopamine receptor (Homo sapiens, UniProt P14416). Briefly: Displacement of [3H]N-methylspiperone from human dopamine D2 receptor by PDSP assay. (Displacement assays read how much labelled ligand stays bound in the presence of the test substance.)
For the next test, the target named is D(1A) dopamine receptor (Homo sapiens, UniProt P21728). Put plainly: Displacement of [3H][…] from human dopamine D1 receptor by PDSP assay.
The species entered for test [5] is Homo sapiens. Put plainly: Selectivity ratio of Ki for human sigma1 receptor to human sigma2 receptor.
Test [6] deals with T2, D(3) dopamine receptor (Homo sapiens, UniProt P35462). Put plainly: Displacement of [3H]N-methylspiperone from human dopamine D3 receptor by PDSP assay.
In test [7] the target is Sigma non-opioid intracellular receptor 1 (Homo sapiens, UniProt Q99720). Briefly: Displacement of [3H](+)-pentazocine from human sigma1 receptor by PDSP assay.
A short description of test [8]: Displacement of [3H]DTG from human sigma2 receptor by PDSP assay.
Test [9] deals with T1, D(2) dopamine receptor. Put plainly: Displacement of [3H]N-methylspiperone from human dopamine D2 receptor at 50 uM by PDSP assay.
A further test deals with MDA-MB-231. Briefly: Cytotoxicity against human MDA-MB-231 cells assessed as cell viability after 24 hrs by Alamar blue assay. Particulars: MDA-MB-231, 24 h; call rule not given here. The test is classed as functional, cell-based. Background: Alamar Blue is a resazurin reagent that responds to reducing activity.
Test [10] in a line: Binding affinity to sigma2 receptor (unknown origin) by PDSP assay. Also on record: species or system Homo sapiens.
In test [11] the target is T2, D(3) dopamine receptor. Put plainly: Binding affinity to dopamine D3 receptor (unknown origin) by PDSP assay.

A value given as a limit tells only on which side of the number the result lay.

T1 sequence (P14416 whole entry): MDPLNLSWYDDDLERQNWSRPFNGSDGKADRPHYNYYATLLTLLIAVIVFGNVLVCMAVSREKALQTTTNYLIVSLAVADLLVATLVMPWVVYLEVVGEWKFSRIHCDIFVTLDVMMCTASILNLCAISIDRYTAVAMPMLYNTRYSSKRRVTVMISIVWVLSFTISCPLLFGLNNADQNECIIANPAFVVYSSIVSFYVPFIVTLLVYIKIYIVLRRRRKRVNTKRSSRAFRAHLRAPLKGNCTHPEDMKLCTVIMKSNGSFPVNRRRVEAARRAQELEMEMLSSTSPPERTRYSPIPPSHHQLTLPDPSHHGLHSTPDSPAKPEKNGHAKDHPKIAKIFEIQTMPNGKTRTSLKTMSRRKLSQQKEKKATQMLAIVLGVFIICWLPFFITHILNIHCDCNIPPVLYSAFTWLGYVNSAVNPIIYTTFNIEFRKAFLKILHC
Sigma non-opioid intracellular receptor 1, sequence (Q99720 whole entry): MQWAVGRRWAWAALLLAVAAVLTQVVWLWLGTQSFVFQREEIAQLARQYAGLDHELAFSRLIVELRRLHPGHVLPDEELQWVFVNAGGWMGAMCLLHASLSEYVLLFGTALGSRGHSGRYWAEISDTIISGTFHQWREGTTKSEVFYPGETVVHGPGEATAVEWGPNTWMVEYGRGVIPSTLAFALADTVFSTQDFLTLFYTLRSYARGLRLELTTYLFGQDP
T2 sequence (P35462 whole entry): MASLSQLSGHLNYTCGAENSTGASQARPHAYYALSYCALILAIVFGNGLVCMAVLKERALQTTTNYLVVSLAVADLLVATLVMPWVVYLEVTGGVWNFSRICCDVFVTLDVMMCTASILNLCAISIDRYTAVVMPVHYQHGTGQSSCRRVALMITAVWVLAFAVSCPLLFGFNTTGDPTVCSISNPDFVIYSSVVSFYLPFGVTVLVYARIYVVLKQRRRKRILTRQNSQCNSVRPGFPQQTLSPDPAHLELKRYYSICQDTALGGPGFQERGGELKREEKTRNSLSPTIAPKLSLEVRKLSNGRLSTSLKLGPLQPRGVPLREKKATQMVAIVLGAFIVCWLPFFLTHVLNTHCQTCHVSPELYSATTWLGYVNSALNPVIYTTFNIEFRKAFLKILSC
D(1A) dopamine receptor, sequence (P21728 whole entry): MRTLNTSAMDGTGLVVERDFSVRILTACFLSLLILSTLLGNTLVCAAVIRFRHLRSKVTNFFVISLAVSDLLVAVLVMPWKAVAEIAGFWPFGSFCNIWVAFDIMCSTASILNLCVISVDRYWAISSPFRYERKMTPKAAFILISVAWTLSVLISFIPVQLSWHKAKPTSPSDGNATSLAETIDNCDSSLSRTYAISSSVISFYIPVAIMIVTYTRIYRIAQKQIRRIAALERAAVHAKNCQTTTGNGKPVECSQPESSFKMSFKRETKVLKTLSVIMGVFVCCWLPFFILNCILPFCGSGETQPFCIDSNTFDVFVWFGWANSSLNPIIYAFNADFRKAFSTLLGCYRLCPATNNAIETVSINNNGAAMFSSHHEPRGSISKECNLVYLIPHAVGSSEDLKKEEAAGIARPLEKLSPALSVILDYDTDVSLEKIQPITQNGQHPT

As for `CCOc1ccc2c(c1OC)CN1CCc3cc(OC)c(O)cc3C1C2` (stereo unspecified), the Ratio Ki is 3.5 in the test listed under Homo sapiens [1], 12.8 in the test listed under Homo sapiens [2], 3.6 in the test listed under Homo sapiens [3] and 95 in the test listed under Homo sapiens [5]. Moreover, the Ki came to 159 nM on D(2) dopamine receptor [4] (read-out: Ki); 12.4 nM at D(1A) dopamine receptor; 44 nM at D(3) dopamine receptor [6]; 124 nM in [7]; 1.3 nM in test [8].

For the molecule `COc1cc(CCN(C)Cc2cccc(O)c2OC)ccc1O`, the Ki on D(2) dopamine receptor [4] (read-out: Ki) was greater than 10000 nM; on D(1A) dopamine receptor, 3110 nM; at D(3) dopamine receptor [6], 2680 nM; in test [7], 122 nM; in test [8], 227 nM.

On to `CCCCCCOc1ccc2c(c1OC)CN1CCc3cc(OC)c(O)cc3C1C2` (stereo unspecified), for which the Ratio Ki in the test listed under Homo sapiens [1] was 5.5; in the test filed under Homo sapiens [5] it was 0.35. For the same molecule, the inhibition on D(2) dopamine receptor [9] is less than 50%. Moreover, the Ki entry was “Not Active” on D(2) dopamine receptor [4]; 40 nM on D(1A) dopamine receptor; 220 nM on D(3) dopamine receptor [6]; 37 nM in test [7]; 107 nM in test [8].

With `COc1cc2c(cc1O)C1Cc3ccc(O)c(OC)c3CN1CC2` (racemic), the Ratio Ki in the test listed under Homo sapiens [1] amounted to 18; in the test filed under Homo sapiens [2] it was 20.6; in the test listed under Homo sapiens [3], 1.1; in the test filed under Homo sapiens [5], 30. Further, the Ki came out at 116 nM on D(2) dopamine receptor [4] (read-out: Ki); 5.6 nM on D(1A) dopamine receptor; 101 nM at D(3) dopamine receptor [6]; 269 nM in test [7]; 9 nM in [8].

As for `CCCOc1ccc2c(c1OC)CN1CCc3cc(OC)c(O)cc3C1C2` (stereo unspecified), the Ki on D(2) dopamine receptor [4] (read-out: Ki) turned out to be 99 nM; at D(1A) dopamine receptor, 7.8 nM; at D(3) dopamine receptor [6] it was 53 nM; in [7], 57 nM; in [8], 6.7 nM.

For `CCCCOc1ccc2c(c1OC)CN1CCc3cc(OC)c(O)cc3C1C2` (stereo unspecified), the Ki at D(2) dopamine receptor [4] (read-out: Ki) was 121 nM; on D(3) dopamine receptor [6], 65 nM; in test [7], 13 nM; in [8], 49 nM.

`CCN(CCc1ccc(O)c(OC)c1)Cc1cccc(O)c1OC`: the Ki on D(2) dopamine receptor [4] (read-out: Ki) is greater than 10000 nM; at D(1A) dopamine receptor, greater than 10000 nM; on D(3) dopamine receptor [6], 1810 nM; in test [7], 350 nM; in test [8] it was 788 nM.

Turning to `COc1cc2c(cc1O)C(C)N(Cc1cccc(O)c1OC)CC2` (stereo unspecified), the inhibition constant (Ki) was 1100 nM at D(2) dopamine receptor [4] (read-out: Ki); 833 nM at D(1A) dopamine receptor; 1370 nM on D(3) dopamine receptor [6]; 130 nM in test [7]; 301 nM in [8].

Take `COc1cc2c(cc1O)C1Cc3ccc(OC)c(OC)c3CN1CC2` (stereo unspecified): the Ki on D(3) dopamine receptor [6] was 37 nM; in test [8], 1 nM. Moreover, in the test with MDA-MB-231, the IC50 amounted to 178000 nM.

For the molecule `COc1cc2c(cc1O)C1Cc3ccc(OCCCO)c(OC)c3CN1CC2` (stereo unspecified), the Ratio Ki amounted to 16.4 in the test listed under Homo sapiens [1], 31.5 in the test filed under Homo sapiens [2], 1.9 in the test listed under Homo sapiens [3] and 13.9 in the test filed under Homo sapiens [5]. For the same molecule, the inhibition constant Ki was 211 nM on D(2) dopamine receptor [4] (read-out: Ki); 6.7 nM at D(1A) dopamine receptor; 110 nM at D(3) dopamine receptor [6]; 53 nM in [7]; 3.8 nM in test [8].

As for `COc1cc2c(cc1O)C1Cc3ccc(OCC4CC4)c(OC)c3CN1CC2` (stereo unspecified), the Ki at D(1A) dopamine receptor is 12 nM; in test [7] it was 12 nM; in test [8], 2.4 nM.

With `COc1cc2c(cc1O)[C@@H]1Cc3ccc(O)c(OC)c3CN1CC2` [STEPHOLIDINE], the inhibitory constant (Ki) is 54 nM in [10] and 30 nM at D(3) dopamine receptor [11].

Turning to `CCCCCOc1ccc2c(c1OC)CN1CCc3cc(OC)c(O)cc3C1C2` (stereo unspecified), the Ratio Ki in the test filed under Homo sapiens [1] came out at 5.3; in the test listed under Homo sapiens [2], 14.9; in the test filed under Homo sapiens [3], 2.8; in the test listed under Homo sapiens [5] it was 1.22. Further, the Ki on D(2) dopamine receptor [4] (read-out: Ki) was 283 nM; at D(1A) dopamine receptor, 19 nM; at D(3) dopamine receptor [6], 101 nM; in test [7] it was 119 nM; in test [8], 97 nM.
